Here are results for 18 molecules from patent publication US9745283B2, “Uracil derivatives as AXL and c-MET kinase inhibitors” (priority 2011, dated 2017).

Each structure is given as a SMILES string.

This test addresses recombinant human baculovirus-expressed cMET (Homo sapiens (Human), UniProt P08581). In words: C-MET Kinase Assay (HTRF KinEASE). It is filed as biochemical. The note with it: average of two or more determinations; read-out: c-MET IC50. Here is the method:
The cMET kinase assay was performed in 384-well Fluotrac™ 200 HiBase microplates using the HTRF KinEASE™ assay described above for AXL except that the assay volume was reduced to half. Enzyme concentration was 8 ng/mL of recombinant human baculovirus-expressed cMET while the substrate concentrations were 0.1 μM and 0.02 μM for the biotinylated peptide and ATP, respectively. Instead of the Multidrop Combi, the BioRAPTR® FRD microfluidic workstation (Beckman Coulter, Brea, Calif.) was utilized for reagent additions.
Inhibition curves for compounds were generated by plotting percent control activity versus log 10 of the concentration of compound. IC50 values were calculated by nonlinear regression using the sigmoidal dose-response (variable slope) equation in GraphPad Prism as follows: y=bottom+(top−bottom)/(1+10(log IC50−x)*Hill Slope) where y is the % kinase activity at a given concentration of compound, x is the logarithm of the concentration of compound, bottom is the % of control kinase activity at the highest compound concentration tested, and top is the % of control kinase activity at the lowest compound concentration examined. The values for bottom and top were fixed at 0 and 100, respectively.
Background: TR-FRET usually uses a lanthanide donor and a delayed reading to cut background.

Take `COc1cc2nccc(Oc3ccc(NC(=O)c4cn(CCOCc5ccccc5)c(=O)n(-c5ccc(F)cc5)c4=O)cc3F)c2cc1OC` [Example 10, 1-(2-Benzyloxyethyl)-3-(4-fluorophenyl)-2,4-dioxo-1,2,3,4-tetrahydropyrimidine-5-carboxylic acid [4-(6,7-dimethoxyquinolin-4-yloxy)-3-fluorophenyl]-amide]: the IC50 (as a rule, the concentration at which inhibition is half-maximal) fell in the range of 0.01 to 0.1 µM.

For the molecule `COc1cc2nccc(Oc3ccc(NC(=O)c4cn(CCOC(C)C)c(=O)n(-c5ccc(F)cc5)c4=O)cc3F)c2cc1OC` [Example 12, 3-(4-Fluorophenyl)-1-(2-isopropoxyethyl)-2,4-dioxo-1,2,3,4-tetrahydropyrimidine-5-carboxylic acid [4-(6,7-dimethoxyquinolin-4-yloxy)-3-fluorophenyl]-amide], the IC50 lay in the range of 0.01 to 0.1 µM.

In the case of `COc1cc2nccc(Oc3ccc(NC(=O)c4cn(CCCOCc5ccccc5)c(=O)n(-c5ccc(F)cc5)c4=O)cc3F)c2cc1OC` [Example 13, 1-(3-Benzyloxypropyl)-3-(4-fluorophenyl)-2,4-dioxo-1,2,3,4-tetrahydropyrimidine-5-carboxylic acid [4-(6,7-dimethoxyquinolin-4-yloxy)-3-fluorophenyl]-amide], the IC50 is 0.01 to 0.1 µM.

With `COc1cc2nccc(Oc3ccc(NC(=O)c4cn(CC=C(C)C)c(=O)n(-c5ccc(F)cc5)c4=O)cc3F)c2cc1OC` [Example 15, 3-(4-Fluorophenyl)-1-(3-methyl-but-2-enyl)-2,4-dioxo-1,2,3,4-tetrahydropyrimidine-5-carboxylic acid [4-(6,7-dimethoxyquinolin-4-yloxy)-3-fluorophenyl]-amide], the IC50 is 0.01 to 0.1 µM.

Take `COc1cc2nccc(Oc3ccc(NC(=O)c4cn(CCOCc5ccccc5)c(=O)n(-c5ccc(F)cc5)c4=O)cc3)c2cc1OC` [Example 19, 1-(2-Benzyloxyethyl)-3-(4-fluoro-phenyl)-2,4-dioxo-1,2,3,4-tetrahydropyrimidine-5-carboxylic acid [4-(6,7-dimethoxyquinolin-4-yloxy)-phenyl]-amide]: the IC50 lay in the range of 0.01 to 0.1 µM.

For `CCn1cc(C(=O)Nc2ccc(Oc3ccnc4cc(OC)c(OC)cc34)c(F)c2)c(=O)n(C2CCCCC2)c1=O` [Example 25, 3-Cyclohexyl-1-ethyl-2,4-dioxo-1,2,3,4-tetrahydropyrimidine-5-carboxylic acid [4-(6,7-dimethoxyquinolin-4-yloxy)-3-fluorophenyl]-amide], the IC50 was 0.101 to 1 µM.

For the molecule `COc1cc2nccc(Oc3ccc(NC(=O)c4cn(CC5CC5)c(=O)n(-c5ccc(F)cc5)c4=O)nc3)c2cc1OC` [Example 35, 1-Cyclopropylmethyl-3-(4-fluorophenyl)-2,4-dioxo-1,2,3,4-tetrahydropyrimidine-5-carboxylic acid [5-(6,7-dimethoxyquinolin-4-yloxy)pyridin-2-yl]-amide], the IC50 was 0.01 to 0.1 µM.

Take `CCCCCn1cc(C(=O)Nc2ccc(Oc3ccnc4cc(OC)c(OC)cc34)c(F)c2)c(=O)n(-c2ccc(F)cc2)c1=O` [Example 36, 3-(4-Fluorophenyl)-2,4-dioxo-1-pentyl-1,2,3,4-tetrahydropyrimidine-5-carboxylic acid [4-(6,7-dimethoxyquinolin-4-yloxy)-3-fluorophenyl]-amide]: the IC50 lay within 0.01 to 0.1 µM.

With `CCOc1cc2nccc(Oc3ccc(NC(=O)c4cn(C(C)C)c(=O)n(-c5ccc(F)cc5)c4=O)cc3F)c2cc1OCC` [Example 37, 3-(4-Fluorophenyl)-1-isopropyl-2,4-dioxo-1,2,3,4-tetrahydropyrimidine-5-carboxylic acid [4-(6,7-diethoxyquinolin-4-yloxy)-3-fluoro-phenyl]-amide], the IC50 is 0.101 to 1 µM.

As for `CCn1cc(C(=O)Nc2ccc(Oc3ccnc4cc(OCc5ccccc5)c(OC)cc34)c(F)c2)c(=O)n(-c2ccc(F)cc2)c1=O` [Example 40, 1-Ethyl-3-(4-fluorophenyl)-2,4-dioxo-1,2,3,4-tetrahydropyrimidine-5-carboxylic acid [4-(7-benzyloxy-6-methoxyquinolin-4-yloxy)-3-fluorophenyl]-amide], the IC50 lay in the range of 0.01 to 0.1 µM.

As for `COc1cc2c(Oc3ccc(NC(=O)c4cn(C(C)C)c(=O)n(-c5ccc(F)cc5)c4=O)cc3F)ccnc2cc1OCc1ccccc1` [Example 41, 3-(4-Fluorophenyl)-1-isopropyl-2,4-dioxo-1,2,3,4-tetrahydropyrimidine-5-carboxylic acid [4-(7-benzyloxy-6-methoxyquinolin-4-yloxy)-3-fluorophenyl]-amide], the IC50 fell in the range of 0.101 to 1 µM.

Consider `CCn1cc(C(=O)Nc2ccc(Oc3ccnc4cc(O)c(OC)cc34)c(F)c2)c(=O)n(-c2ccc(F)cc2)c1=O` [Example 42, 1-Ethyl-3-(4-fluorophenyl)-2,4-dioxo-1,2,3,4-tetrahydropyrimidine-5-carboxylic acid [3-fluoro-4-(7-hydroxy-6-methoxyquinolin-4-yloxy)phenyl]-amide], for which the IC50 fell in the range of 0.01 to 0.1 µM.

As for `CCn1cc(C(=O)Nc2ccc(Oc3ccnc4cc(OCCCN5CCOCC5)c(OC)cc34)c(F)c2)c(=O)n(-c2ccc(F)cc2)c1=O` [Example 43, 1-Ethyl-3-(4-fluorophenyl)-2,4-dioxo-1,2,3,4-tetrahydropyrimidine-5-carboxylic acid {3-fluoro-4-[6-methoxy-7-(3-morpholin-4-yl-propoxy)quinolin-4-yloxy]phenyl}-amide], the IC50 was 0.01 to 0.1 µM.

Turning to `CCn1cc(C(=O)Nc2ccc(Oc3ccnc4cc(OCCOC)c(OC)cc34)c(F)c2)c(=O)n(-c2ccc(F)cc2)c1=O` [Example 44, 1-Ethyl-3-(4-fluorophenyl)-2,4-dioxo-1,2,3,4-tetrahydropyrimidine-5-carboxylic acid {3-fluoro-4-[6-methoxy-7-(2-methoxyethoxy)quinolin-4-yloxy]-phenyl}-amide], the IC50 was 0.01 to 0.1 µM.

Take `CCn1cc(C(=O)Nc2ccc(Oc3ccnc4cc(OCCN5CCOCC5)c(OC)cc34)c(F)c2)c(=O)n(-c2ccc(F)cc2)c1=O` [Example 45, 1-Ethyl-3-(4-fluorophenyl)-2,4-dioxo-1,2,3,4-tetrahydropyrimidine-5-carboxylic acid {3-fluoro-4-[6-methoxy-7-(2-morpholin-4-yl-ethoxy)-quinolin-4-yloxy]phenyl}-amide]: the IC50 lay within 0.01 to 0.1 µM.

On to `COc1cc2c(Oc3ccc(NC(=O)c4cn(C(C)C)c(=O)n(-c5ccc(F)cc5)c4=O)cc3F)ccnc2cc1O` [Example 46, 3-(4-Fluorophenyl)-1-isopropyl-2,4-dioxo-1,2,3,4-tetrahydropyrimidine-5-carboxylic acid [3-fluoro-4-(7-hydroxy-6-methoxyquinolin-4-yloxy)-phenyl]-amide], for which the IC50 is < 0.01 µM.

Take `COc1cc2c(Oc3ccc(NC(=O)c4cn(C(C)C)c(=O)n(-c5ccc(F)cc5)c4=O)cc3F)ccnc2cc1OCCCN1CCOCC1` [Example 47, 3-(4-Fluorophenyl)-1-isopropyl-2,4-dioxo-1,2,3,4-tetrahydropyrimidine-5-carboxylic acid {3-fluoro-4-[6-methoxy-7-(3-morpholin-4-yl-propoxy)-quinolin-4-yloxy]phenyl}-amide]: the IC50 is 0.01 to 0.1 µM.

As to `CCn1cc(C(=O)N(C)c2ccc(Oc3ccnc4cc(OC)c(OC)cc34)c(F)c2)c(=O)n(-c2ccc(F)cc2)c1=O` [Example 48, 1-Ethyl-3-(4-fluorophenyl)-2,4-dioxo-1,2,3,4-tetrahydropyrimidine-5-carboxylic acid [4-(6,7-dimethoxyquinolin-4-yloxy)-3-fluoro-phenyl]-methyl-amide], the IC50 was 0.101 to 1 µM.
